Experimental data published in PubChem BioAssay (NCI).
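Exposure lasted 48 hours, with cells grown in 96-well plates and compounds tested at five concentrations. GI50 = concentration required for 50% inhibition of growth. The concentration for full growth arrest is given as TGI.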

How the values were obtained:
Assay in all cases: NCI-60 cell line screen, 48 h
IGROV1 ovarian = test system: IGROV1 ovarian
UACC-62 melanoma = test system: UACC-62 melanoma
RXF 393 renal = test system: RXF 393 renal
UACC-257 melanoma = test system: UACC-257 melanoma
ACHN renal = test system: ACHN renal
HOP-92 NSCLC = test system: HOP-92 NSCLC
SNB-19 CNS = test system: SNB-19 CNS
SK-OV-3 ovarian = test system: SK-OV-3 ovarian
SF-295 CNS = test system: SF-295 CNS
K-562 leukemia = test system: K-562 leukemia
SF-268 CNS = test system: SF-268 CNS
SK-MEL-2 melanoma = test system: SK-MEL-2 melanoma
LOX IMVI melanoma = test system: LOX IMVI melanoma
HCC-2998 colon = test system: HCC-2998 colon
SK-MEL-5 melanoma = test system: SK-MEL-5 melanoma
MCF7 breast = test system: MCF7 breast
RPMI-8226 leukemia = test system: RPMI-8226 leukemia
SNB-75 CNS = test system: SNB-75 CNS
NCI-H226 lung = test system: NCI-H226 lung
KM12 colon = test system: KM12 colon
TK-10 renal = test system: TK-10 renal
HOP-62 NSCLC = test system: HOP-62 NSCLC
HL-60(TB) leukemia = test system: HL-60(TB) leukemia
CCRF-CEM leukemia = test system: CCRF-CEM leukemia
OVCAR-4 ovarian = test system: OVCAR-4 ovarian
OVCAR-8 ovarian = test system: OVCAR-8 ovarian
U251 CNS = test system: U251 CNS
MOLT-4 leukemia = test system: MOLT-4 leukemia
NCI-H522 lung = test system: NCI-H522 lung
HS 578T breast = test system: HS 578T breast
NCI-H460 lung = test system: NCI-H460 lung
A549 NSCLC = test system: A549 NSCLC
HCT-15 colon = test system: HCT-15 colon
NCI-H23 lung = test system: NCI-H23 lung
SW-620 colon = test system: SW-620 colon
SF-539 CNS = test system: SF-539 CNS
SK-MEL-28 melanoma = test system: SK-MEL-28 melanoma
SN12C renal = test system: SN12C renal
OVCAR-5 ovarian = test system: OVCAR-5 ovarian
NCI/ADR-RES ovarian = test system: NCI/ADR-RES ovarian
COLO 205 colon = test system: COLO 205 colon
HCT-116 colon = test system: HCT-116 colon
OVCAR-3 ovarian = test system: OVCAR-3 ovarian
CAKI-1 renal = test system: CAKI-1 renal
DU-145 prostate = test system: DU-145 prostate
MDA-MB-435 = test system: MDA-MB-435
UO-31 renal = test system: UO-31 renal
MDA-MB-231 breast = test system: MDA-MB-231 breast
EKVX NSCLC = test system: EKVX NSCLC
T-47D breast = test system: T-47D breast
PC-3 prostate = test system: PC-3 prostate
BT-549 breast = test system: BT-549 breast
786-0 renal = test system: 786-0 renal
HT29 colon = test system: HT29 colon

Structure (SMILES): Clc1ccc(OCc2nn3c(CCCCc4nnc5sc(COc6ccc(Cl)cc6Cl)nn45)nnc3s2)c(Cl)c1
- GI50 (IGROV1 ovarian): 83 µM
- TGI (IGROV1 ovarian): > 100 µM
- GI50 (UACC-62 melanoma): 69.4 µM
- TGI (UACC-62 melanoma): > 100 µM
- GI50 (RXF 393 renal): 83.9 µM
- TGI (RXF 393 renal): > 100 µM
- GI50 (UACC-257 melanoma): 72.7 µM
- TGI (UACC-257 melanoma): > 100 µM
- GI50 (ACHN renal): 93.6 µM
- TGI (ACHN renal): > 100 µM
- GI50 (HOP-92 NSCLC): 50.3 µM
- TGI (HOP-92 NSCLC): > 100 µM
- GI50 (SNB-19 CNS): 76.8 µM
- TGI (SNB-19 CNS): > 100 µM
- GI50 (SK-OV-3 ovarian): > 100 µM
- TGI (SK-OV-3 ovarian): > 100 µM
- GI50 (SF-295 CNS): 40.6 µM
- TGI (SF-295 CNS): > 100 µM
- GI50 (K-562 leukemia): 22.7 µM
- TGI (K-562 leukemia): 61 µM
- GI50 (SF-268 CNS): 73.1 µM
- TGI (SF-268 CNS): > 100 µM
- GI50 (SK-MEL-2 melanoma): > 100 µM
- TGI (SK-MEL-2 melanoma): > 100 µM
- GI50 (LOX IMVI melanoma): 67.1 µM
- TGI (LOX IMVI melanoma): > 100 µM
- GI50 (HCC-2998 colon): 35.3 µM
- TGI (HCC-2998 colon): > 100 µM
- GI50 (SK-MEL-5 melanoma): 42 µM
- TGI (SK-MEL-5 melanoma): > 100 µM
- GI50 (MCF7 breast): 48.1 µM
- TGI (MCF7 breast): > 100 µM
- GI50 (RPMI-8226 leukemia): 25.4 µM
- TGI (RPMI-8226 leukemia): 59.6 µM
- GI50 (SNB-75 CNS): 33.3 µM
- TGI (SNB-75 CNS): > 100 µM
- GI50 (NCI-H226 lung): 38 µM
- TGI (NCI-H226 lung): > 100 µM
- GI50 (KM12 colon): 31.9 µM
- TGI (KM12 colon): > 100 µM
- GI50 (TK-10 renal): 32.6 µM
- TGI (TK-10 renal): 92 µM
- GI50 (HOP-62 NSCLC): 60.1 µM
- TGI (HOP-62 NSCLC): > 100 µM
- GI50 (HL-60(TB) leukemia): > 100 µM
- TGI (HL-60(TB) leukemia): > 100 µM
- GI50 (CCRF-CEM leukemia): 51 µM
- TGI (CCRF-CEM leukemia): > 100 µM
- GI50 (OVCAR-4 ovarian): 50.3 µM
- TGI (OVCAR-4 ovarian): > 100 µM
- GI50 (OVCAR-8 ovarian): 46.2 µM
- TGI (OVCAR-8 ovarian): > 100 µM
- GI50 (U251 CNS): 29 µM
- TGI (U251 CNS): 89.7 µM
- GI50 (MOLT-4 leukemia): 18.4 µM
- TGI (MOLT-4 leukemia): 48.5 µM
- GI50 (NCI-H522 lung): 45.2 µM
- TGI (NCI-H522 lung): > 100 µM
- GI50 (HS 578T breast): 36.7 µM
- TGI (HS 578T breast): > 100 µM
- GI50 (NCI-H460 lung): 71.9 µM
- TGI (NCI-H460 lung): > 100 µM
- GI50 (A549 NSCLC): 82.6 µM
- TGI (A549 NSCLC): > 100 µM
- GI50 (HCT-15 colon): > 100 µM
- TGI (HCT-15 colon): > 100 µM
- GI50 (NCI-H23 lung): 37.3 µM
- TGI (NCI-H23 lung): > 100 µM
- GI50 (SW-620 colon): > 100 µM
- TGI (SW-620 colon): > 100 µM
- GI50 (SF-539 CNS): 55.8 µM
- TGI (SF-539 CNS): > 100 µM
- GI50 (SK-MEL-28 melanoma): > 100 µM
- TGI (SK-MEL-28 melanoma): > 100 µM
- GI50 (SN12C renal): 94.3 µM
- TGI (SN12C renal): > 100 µM
- GI50 (OVCAR-5 ovarian): > 100 µM
- TGI (OVCAR-5 ovarian): > 100 µM
- GI50 (NCI/ADR-RES ovarian): 35.8 µM
- TGI (NCI/ADR-RES ovarian): > 100 µM
- GI50 (COLO 205 colon): 52 µM
- TGI (COLO 205 colon): > 100 µM
- GI50 (HCT-116 colon): 18.1 µM
- TGI (HCT-116 colon): 63.1 µM
- GI50 (OVCAR-3 ovarian): 30.4 µM
- TGI (OVCAR-3 ovarian): 74.4 µM
- GI50 (CAKI-1 renal): 40.1 µM
- TGI (CAKI-1 renal): > 100 µM
- GI50 (DU-145 prostate): 71.9 µM
- TGI (DU-145 prostate): > 100 µM
- GI50 (MDA-MB-435): 49.6 µM
- TGI (MDA-MB-435): > 100 µM
- GI50 (UO-31 renal): > 100 µM
- TGI (UO-31 renal): > 100 µM
- GI50 (MDA-MB-231 breast): 44.3 µM
- TGI (MDA-MB-231 breast): > 100 µM
- GI50 (EKVX NSCLC): 57.5 µM
- TGI (EKVX NSCLC): > 100 µM
- GI50 (T-47D breast): 43.9 µM
- TGI (T-47D breast): > 100 µM
- GI50 (PC-3 prostate): 47.8 µM
- TGI (PC-3 prostate): > 100 µM
- GI50 (BT-549 breast): 54.2 µM
- TGI (BT-549 breast): > 100 µM
- GI50 (786-0 renal): 65.4 µM
- TGI (786-0 renal): > 100 µM
- GI50 (HT29 colon): > 100 µM
- TGI (HT29 colon): > 100 µM
